{"source": "ChEMBL document CHEMBL3046105", "about": "“Synthesis and antihyperlipidemic efficiency of berberine-based HMG-CoA reductase inhibitor” (Med Chem Res, 2012)", "key": {"[1]": {"target": "T1, 3-hydroxy-3-methylglutaryl-coenzyme A reductase (Mus musculus) (UniProt Q01237)", "T1 sequence (whole entry)": "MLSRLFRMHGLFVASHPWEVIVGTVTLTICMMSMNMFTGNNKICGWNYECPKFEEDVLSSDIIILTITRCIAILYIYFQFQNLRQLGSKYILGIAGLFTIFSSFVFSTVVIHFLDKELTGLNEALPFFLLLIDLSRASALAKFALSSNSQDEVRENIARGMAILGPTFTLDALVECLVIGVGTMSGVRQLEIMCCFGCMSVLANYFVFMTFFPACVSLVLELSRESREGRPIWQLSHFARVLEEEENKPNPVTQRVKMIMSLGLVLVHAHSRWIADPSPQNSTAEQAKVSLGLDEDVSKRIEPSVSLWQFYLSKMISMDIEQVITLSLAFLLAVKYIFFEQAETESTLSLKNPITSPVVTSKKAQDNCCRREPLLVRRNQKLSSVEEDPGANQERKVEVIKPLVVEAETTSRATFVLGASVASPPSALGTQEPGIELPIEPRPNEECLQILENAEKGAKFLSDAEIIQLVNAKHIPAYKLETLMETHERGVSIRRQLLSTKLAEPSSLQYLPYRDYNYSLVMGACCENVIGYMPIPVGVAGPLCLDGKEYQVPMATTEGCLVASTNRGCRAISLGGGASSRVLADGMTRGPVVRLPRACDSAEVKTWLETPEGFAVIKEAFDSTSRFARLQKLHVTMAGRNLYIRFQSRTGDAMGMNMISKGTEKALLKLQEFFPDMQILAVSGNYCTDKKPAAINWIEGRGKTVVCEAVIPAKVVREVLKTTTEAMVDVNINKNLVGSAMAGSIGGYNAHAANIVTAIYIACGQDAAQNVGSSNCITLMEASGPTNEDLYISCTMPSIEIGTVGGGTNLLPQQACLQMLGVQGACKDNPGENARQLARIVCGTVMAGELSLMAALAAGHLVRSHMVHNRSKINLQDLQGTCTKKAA", "assay": "Inhibition of HMGR isolated from Mus musculus (mouse) liver assessed as change in NADPH at 8 umol/l by HPLC analysis"}, "Oryctolagus cuniculus [2]": {"tested_on": "Oryctolagus cuniculus", "assay": "Reduction in hepatic steatosis and appearance of inflammatory cell in high fat-high cholesterol fed New Zealand Oryctolagus cuniculus (rabbit) at 5 mg/kg, po for 2 months by hematoxylin-eosin staining analysis", "type": "functional, organism-based", "design": "dose 5 mg/kg"}, "Oryctolagus cuniculus [3]": {"tested_on": "Oryctolagus cuniculus", "assay": "Reduction in number of lipid droplets in liver cells of high fat-high cholesterol fed New Zealand Oryctolagus cuniculus (rabbit) at 10 to 15 mg/kg, po for 2 months by hematoxylin-eosin staining analysis", "type": "functional, organism-based"}, "Oryctolagus cuniculus [4]": {"tested_on": "Oryctolagus cuniculus", "assay": "Antihyperlipidemic activity in high fat-high cholesterol fed New Zealand Oryctolagus cuniculus (rabbit) assessed as low-density lipoprotein-cholesterol level in blood at 15 mg/kg, po for 40 days (reference value: 3.47 +/- 0.44 mmol/l)", "type": "functional"}, "Oryctolagus cuniculus [5]": {"tested_on": "Oryctolagus cuniculus", "assay": "Antihyperlipidemic activity in high fat-high cholesterol fed New Zealand Oryctolagus cuniculus (rabbit) assessed as low-density lipoprotein-cholesterol level in blood at 5 mg/kg, po for 40 days (reference value: 3.47 +/- 0.44 mmol/l)", "type": "functional"}, "Oryctolagus cuniculus [6]": {"tested_on": "Oryctolagus cuniculus", "assay": "Antihyperlipidemic activity in high fat-high cholesterol fed New Zealand Oryctolagus cuniculus (rabbit) assessed as triglyceride level in blood at 10 mg/kg, po for 40 days (reference value: 2.07 +/- 0.33 mmol/l)", "type": "functional"}, "Oryctolagus cuniculus [7]": {"tested_on": "Oryctolagus cuniculus", "assay": "Antihyperlipidemic activity in high fat-high cholesterol fed New Zealand Oryctolagus cuniculus (rabbit) assessed as triglyceride level in blood at 5 mg/kg, po for 40 days (reference value: 2.07 +/- 0.33 mmol/l)", "type": "functional"}, "Oryctolagus cuniculus [8]": {"tested_on": "Oryctolagus cuniculus", "assay": "Antihyperlipidemic activity in high fat-high cholesterol fed New Zealand Oryctolagus cuniculus (rabbit) assessed as total cholesterol level in blood at 15 mg/kg, po for 40 days (reference value: 8.74 +/- 0.53 mmol/l)", "type": "functional"}, "Oryctolagus cuniculus [9]": {"tested_on": "Oryctolagus cuniculus", "assay": "Antihyperlipidemic activity in high fat-high cholesterol fed New Zealand Oryctolagus cuniculus (rabbit) assessed as total cholesterol level in blood at 10 mg/kg, po for 40 days (reference value: 8.74 +/- 0.53 mmol/l)", "type": "functional"}, "Oryctolagus cuniculus [10]": {"tested_on": "Oryctolagus cuniculus", "assay": "Antihyperlipidemic activity in high fat-high cholesterol fed New Zealand Oryctolagus cuniculus (rabbit) assessed as total cholesterol level in blood at 5 mg/kg, po for 40 days (reference value: 8.74 +/- 0.53 mmol/l)", "type": "functional"}, "Oryctolagus cuniculus [11]": {"tested_on": "Oryctolagus cuniculus", "assay": "Antihyperlipidemic activity in high fat-high cholesterol fed New Zealand Oryctolagus cuniculus (rabbit) assessed as low-density lipoprotein-cholesterol level in blood at 15 mg/kg, po for 40 days (reference value: 3.45 +/- 0.56 mmol/l)", "type": "functional"}, "Oryctolagus cuniculus [12]": {"tested_on": "Oryctolagus cuniculus", "assay": "Antihyperlipidemic activity in high fat-high cholesterol fed New Zealand Oryctolagus cuniculus (rabbit) assessed as triglyceride level in blood at 15 mg/kg, po for 40 days (reference value: 2.11 +/- 0.43 mmol/l)", "type": "functional"}, "Oryctolagus cuniculus [13]": {"tested_on": "Oryctolagus cuniculus", "assay": "Antihyperlipidemic activity in high fat-high cholesterol fed New Zealand Oryctolagus cuniculus (rabbit) assessed as total cholesterol level in blood at 15 mg/kg, po for 40 days (reference value: 8.89 +/- 0.53 mmol/l)", "type": "functional"}, "Oryctolagus cuniculus [14]": {"tested_on": "Oryctolagus cuniculus", "assay": "Toxicity in hyperlipidemic New Zealand Oryctolagus cuniculus (rabbit) assessed ashistopathological examination of pancreas at 5 to 15 mg/kg/day, po for 2 months by hematoxylin-eosin staining analysis", "type": "organism-based", "design": "route oral", "conditions": "in vivo"}, "Oryctolagus cuniculus [15]": {"tested_on": "Oryctolagus cuniculus", "assay": "Toxicity in hyperlipidemic New Zealand Oryctolagus cuniculus (rabbit) assessed as histopathological examination of liver at 5 to 15 mg/kg/day, po for 2 months by hematoxylin-eosin staining analysis", "type": "organism-based", "design": "route oral", "conditions": "in vivo"}, "Oryctolagus cuniculus [16]": {"tested_on": "Oryctolagus cuniculus", "assay": "Toxicity in hyperlipidemic New Zealand Oryctolagus cuniculus (rabbit) assessed as effect on spleen coefficient at 5 to 15 mg/kg/day, po for 2 months", "type": "organism-based", "design": "route oral", "conditions": "in vivo"}, "Oryctolagus cuniculus [17]": {"tested_on": "Oryctolagus cuniculus", "assay": "Toxicity in hyperlipidemic New Zealand Oryctolagus cuniculus (rabbit) assessed as morbidity at 5 to 15 mg/kg/day, po for 2 months", "type": "organism-based", "design": "route oral", "conditions": "in vivo"}, "Oryctolagus cuniculus [18]": {"tested_on": "Oryctolagus cuniculus", "assay": "Toxicity in hyperlipidemic New Zealand Oryctolagus cuniculus (rabbit) assessed as blood urea nitrogen level at 15 mg/kg/day, po for 2 months (reference value: 7.25 +/- 1.46 mmol/l)", "type": "organism-based", "design": "route oral", "conditions": "in vivo"}, "Oryctolagus cuniculus [19]": {"tested_on": "Oryctolagus cuniculus", "assay": "Toxicity in hyperlipidemic New Zealand Oryctolagus cuniculus (rabbit) assessed as blood urea nitrogen level at 10 mg/kg/day, po for 2 months (reference value: 7.25 +/- 1.46 mmol/l)", "type": "organism-based", "design": "route oral", "conditions": "in vivo"}, "Oryctolagus cuniculus [20]": {"tested_on": "Oryctolagus cuniculus", "assay": "Toxicity in hyperlipidemic New Zealand Oryctolagus cuniculus (rabbit) assessed as blood urea nitrogen level at 5 mg/kg/day, po for 2 months (reference value: 7.25 +/- 1.46 mmol/l)", "type": "organism-based", "design": "route oral", "conditions": "in vivo"}, "Oryctolagus cuniculus [21]": {"tested_on": "Oryctolagus cuniculus", "assay": "Toxicity in hyperlipidemic New Zealand Oryctolagus cuniculus (rabbit) assessed as total bilirubin level at 10 mg/kg/day, po for 2 months (reference value: 28.45 +/- 11.55 Umol/l)", "type": "organism-based", "design": "route oral", "conditions": "in vivo"}, "Oryctolagus cuniculus [22]": {"tested_on": "Oryctolagus cuniculus", "assay": "Toxicity in hyperlipidemic New Zealand Oryctolagus cuniculus (rabbit) assessed as total bilirubin level at 15 mg/kg/day, po for 2 months (reference value: 28.45 +/- 11.55 Umol/l)", "type": "organism-based", "design": "route oral", "conditions": "in vivo"}, "Oryctolagus cuniculus [23]": {"tested_on": "Oryctolagus cuniculus", "assay": "Toxicity in high fat-high cholesterol fed New Zealand Oryctolagus cuniculus (rabbit) assessed as body weight at 15 mg/kg, po for 40 days", "type": "organism-based", "design": "dose 15 mg/kg, route oral", "conditions": "in vivo, 960 h"}}, "note": "Calls of active or inactive are those of the source. The calls are words filed in the database; no cut-off is given here."}
{"smiles": "CCCCCCCCCCCCCCCCc1c2c(OC)c(OC)ccc2cc2[n+]1CCc1cc3c(cc1-2)OCO3.[Cl-]", "note": "[8-HEXADECYL-BERBERINE CHLORIDE]", "values": [{"measurement": "inhibition", "setting": "[1]", "value": 42.7, "unit": "%"}, {"measurement": "inhibition", "setting": "Oryctolagus cuniculus [2]", "value": "Active"}, {"measurement": "inhibition", "setting": "Oryctolagus cuniculus [3]", "value": "Active"}, {"measurement": "Activity", "setting": "Oryctolagus cuniculus [4]", "value": "2.05e+06", "unit": "nmol/L"}, {"measurement": "Activity", "setting": "Oryctolagus cuniculus [5]", "value": "2.67e+06", "unit": "nmol/L"}, {"measurement": "Activity", "setting": "Oryctolagus cuniculus [6]", "value": "1.89e+06", "unit": "nmol/L"}, {"measurement": "Activity", "setting": "Oryctolagus cuniculus [7]", "value": "1.95e+06", "unit": "nmol/L"}, {"measurement": "Activity", "setting": "Oryctolagus cuniculus [8]", "value": "2.28e+06", "unit": "nmol/L"}, {"measurement": "Activity", "setting": "Oryctolagus cuniculus [9]", "value": "4.26e+06", "unit": "nmol/L"}, {"measurement": "Activity", "setting": "Oryctolagus cuniculus [10]", "value": "6.92e+06", "unit": "nmol/L"}, {"measurement": "Activity", "setting": "Oryctolagus cuniculus [11]", "value": "2.02e+06", "unit": "nmol/L"}, {"measurement": "Activity", "setting": "Oryctolagus cuniculus [12]", "value": "1.58e+06", "unit": "nmol/L"}, {"measurement": "Activity", "setting": "Oryctolagus cuniculus [13]", "value": "2.22e+06", "unit": "nmol/L"}, {"measurement": "Activity", "setting": "Oryctolagus cuniculus [14]", "value": "Non-toxic"}, {"measurement": "Activity", "setting": "Oryctolagus cuniculus [15]", "value": "Non-toxic"}, {"measurement": "Activity", "setting": "Oryctolagus cuniculus [16]", "value": "Non-toxic"}, {"measurement": "Activity", "setting": "Oryctolagus cuniculus [17]", "value": "Non-toxic"}, {"measurement": "Activity", "setting": "Oryctolagus cuniculus [18]", "value": 4.36, "unit": "mmol/L"}, {"measurement": "Activity", "setting": "Oryctolagus cuniculus [19]", "value": 4.73, "unit": "mmol/L"}, {"measurement": "Activity", "setting": "Oryctolagus cuniculus [20]", "value": 5.45, "unit": "mmol/L"}, {"measurement": "Activity", "setting": "Oryctolagus cuniculus [21]", "value": 13.3, "unit": "µmol/L"}, {"measurement": "Activity", "setting": "Oryctolagus cuniculus [22]", "value": 12.8, "unit": "µmol/L"}, {"measurement": "Activity", "setting": "Oryctolagus cuniculus [23]", "value": "Non-toxic"}]}
